From ChEMBL document CHEMBL3784951, “Discovery of (3-(4-(2-Oxa-6-azaspiro[3.3]heptan-6-ylmethyl)phenoxy)azetidin-1-yl)(5-(4-methoxyphenyl)-1,3,4-oxadiazol-2-yl)methanone (AZD1979), a Melanin Concentrating Hormone Receptor 1 (MCHr1) Antagonist with Favorable Physicochemical Properties” (J Med Chem, 2016)
≈ marks a conversion by molar mass, not a printed value.

What was measured:
physchem [1] = conditions: buffer, pH 7.4
in vitro [2] = conditions: human, microsomes
physchem [3] = assay: physchem
Mus musculus [4] = species on record: Mus musculus; assay: animal or person; conditions: C57BL/6J
in vitro [5] = conditions: human, Caco-2
in vitro [6] = conditions: rat, microsomes
in vitro [7] = conditions: human, Caco-2; remark: listed apart in the source
physchem [8] = conditions: pH 7.4
Mus musculus [9] = species on record: Mus musculus; assay: animal or person; conditions: C57BL/6J; remark: listed apart in the source

| Structure (SMILES) | logD (physchem [1]) | microsomal CLint (in vitro [2]) [µL/min/mg] | pKa (physchem [3]) | IC50 (Mus musculus [4]) [µM] | Papp A→B (in vitro [5]) [×10⁻⁶ cm/s] | microsomal CLint (in vitro [6]) [µL/min/mg] | efflux ratio (in vitro [7]) | solubility (physchem [8]) [µM] | IC50 (Mus musculus [9]) [µM] |
| --- | --- | --- | --- | --- | --- | --- | --- | --- | --- |
| COc1ccc(-c2nnc(C(=O)N3CC(Oc4ccc(CN5CC6(CCCO6)C5)cc4)C3)o2)cc1 | 2.7 | 29 | 8.4 | 0.002 | 41 | – | – | – | – |
| O=C(c1nnc(-c2ccccc2)o1)N1CC(Oc2ccc(CN3CC4(CCOC4)C3)cc2)C1 | 2.1 | 2 | 8.6 | – | – | – | – | – | – |
| COc1ccc(-c2nnc(C(=O)N3CC(Oc4ccc(CN5CCCC56COC6)cc4)C3)o2)cc1 | 3.9 | 74 | – | – | – | – | – | – | – |
| COc1ccc(-c2nnc(C(=O)N3CC(Oc4ccc(CN5CCOCC5)c(OC)c4)C3)o2)cc1 | 3.3 | 332 | 7.5 | – | 51 | – | – | – | – |
| COc1ccc(-c2nnc(C(=O)N3CCC(Oc4ccc(CN5CCN(C)CC5)cc4)CC3)o2)cc1 | 2.5 | – | 8.5 | – | 56 | – | – | – | – |
| CN(Cc1ccc(OC2CN(C(=O)c3nnc(-c4ccccc4)o3)C2)cc1)CC1(C)COC1 | 4 | 117 | 8.5 | – | – | – | – | – | – |
| O=C(c1nnc(-c2ccccc2)o1)N1CC(Oc2ccc(CN3CC4(COC4)C3)cc2)C1 | 1.8 | – | – | 0.015 | 79 | – | – | – | – |
| COc1ccc(-c2nnc(C(=O)N3CCC(Oc4ccc(CN5CCCC5)cn4)CC3)o2)cc1 | 2.3 | 24 | 9.2 | – | 49 | 28 | – | – | – |
| COc1ccc(-c2nnc(C(=O)N3CC(Oc4ccc(CN(C)C)c(C)c4)C3)o2)cc1 | 2 | 22 | 9.3 | 0.001 | 54 | 149 | 0.3 | – | – |
| COc1ccc(-c2nnc(C(=O)N3CC(Oc4ccc(CN(C)CC5(C)COC5)cc4)C3)o2)cc1 | 4.1 | 110 | 8 | – | – | – | – | – | – |
| O=C(c1nnc(-c2ccccc2)o1)N1CC(Oc2ccc(CN3CC4(CCCO4)C3)cc2)C1 | 2.6 | 6 | 8.4 | – | – | – | – | – | – |
| COc1ccc(-c2nnc(C(=O)N3CC(Oc4ccc(CN5CC(OC)C5)cc4)C3)o2)cc1 | 2.3 | 51 | 8.5 | – | – | – | – | – | – |
| O=C(c1nnc(-c2ccc(Cl)cc2)o1)N1CCC(Oc2ccc(CN3CCCC3)cc2)CC1 | – | 13 | – | – | 43 | 17 | – | 70 (≈ 32.7 µg/mL) | – |
| COc1ccc(-c2nnc(C(=O)N3CCC(Oc4ccc(CN5CCCC5)nc4)CC3)o2)cc1 | 1.8 | – | 9.1 | – | 31 | – | – | – | – |
| CC1(O)CCN(Cc2ccc(OC3CN(C(=O)c4nnc(-c5ccccc5)o4)C3)cc2)C1 (stereo not given) | 1.45 | – | 9 | 0.146 | 34 | – | 0.26 | – | – |
| Cn1nc(C(=O)N2CCC(Oc3ccc(CN4CCCC4)cc3)CC2)cc1-c1ccccc1 | 2.2 | 7 | – | – | – | – | – | 930 (≈ 413 µg/mL) | – |

| Structure (SMILES) | logD (physchem [1]) | microsomal CLint (in vitro [2]) [µL/min/mg] | pKa (physchem [3]) | IC50 (Mus musculus [4]) [µM] | Papp A→B (in vitro [5]) [×10⁻⁶ cm/s] | microsomal CLint (in vitro [6]) [µL/min/mg] | efflux ratio (in vitro [7]) | solubility (physchem [8]) [µM] | IC50 (Mus musculus [9]) [µM] |
| --- | --- | --- | --- | --- | --- | --- | --- | --- | --- |
| COc1ccc(-c2nnc(C(=O)N3CC(Oc4ccc(CN5CC6(CCOC6)C5)cc4)C3)o2)cc1 | 2.2 | 14 | 8.6 | 0.002 | 60 | – | – | – | – |
| O=C(c1nnc(-c2ccccc2Cl)o1)N1CCC(Oc2ccc(CN3CCCC3)cc2)CC1 | 2.7 | 13 | – | – | 59 | – | – | – | – |
| COc1ccc(-c2nnc(C(=O)N3CC(Oc4ccc(CN5CCCOCC5)cc4)C3)o2)cc1 | 2.4 | 37 | 8.1 | – | 51 | – | – | – | – |
| O=C(c1nnc(-c2ccc(F)cc2)o1)N1CCC(Oc2ccc(CN3CCCC3)cc2)CC1 | 2.4 | – | – | – | 52 | – | – | > 100 | – |
| COc1ccc(-c2nnc(C(=O)N3CC(Oc4ccc(CN(C)C)cc4)C3)o2)cc1 | 1.55 | 17 | 8.9 | 0.014 | 67 | 53 | – | – | – |
| COc1ccc(-c2nnc(C(=O)N3CC(Oc4ccc(CN(C)C)c(F)c4)C3)o2)cc1 | 2.2 | 42 | 8.6 | 0.009 | 62 | 218 | 0.32 | – | – |
| Cc1oc(-c2ccccc2)nc1C(=O)N1CCC(Oc2ccc(CN3CCCC3)cc2)CC1 | 3 | – | – | – | – | – | – | 754 (≈ 336 µg/mL) | – |
| COc1ccc(-c2nnc(C(=O)N3CC(Oc4ccc(CN5CCC(C)(O)C5)cc4)C3)o2)cc1 (stereo not given) | 1.6 | 2.8 | 9 | 0.035 | 42 | – | – | – | – |
| O=C(c1cc(-c2ccccc2)on1)N1CCC(Oc2ccc(CN3CCCC3)cc2)CC1 | 3 | – | – | – | – | – | – | 198 (≈ 85.4 µg/mL) | – |
| O=C(c1nnc(-c2ccccc2)o1)N1CCC(Oc2ccc(CN3CCCC3)cc2)CC1 | 2.2 | – | – | – | 55 | – | – | > 100 | – |
| COc1ccc(-c2nnc(C(=O)N3CC(Oc4ccc(CN5CCN(C)CC5)c(F)c4)C3)o2)cc1 | 2.2 | 36 | 8.4 | – | 46 | – | 0.35 | – | – |
| COc1ccc(-c2nnc(C(=O)N3CCC(Oc4ccc(CN5CC(O)C(C)(C)C5)cc4)CC3)o2)cc1 (stereo not given) | 2.6 | 19 | 8.9 | – | 34 | – | – | – | 0.091 |
| COc1ccc(-c2nnc(C(=O)N3CC(Oc4ccc(CN(C)C)cn4)C3)o2)cc1 | 1.8 | 13 | 8.5 | – | – | 145 | – | – | – |
| CN1CCN(Cc2ccc(OC3CN(C(=O)c4nnc(-c5ccccc5)o4)C3)cc2F)CC1 | 2.1 | 20 | 8.4 | – | 46 | – | 0.35 | – | – |
| O=C(c1nnc(-c2ccc(OC(F)F)cc2)o1)N1CCC(Oc2ccc(CN3CCCC3)cc2)CC1 | 2.9 | 15 | – | – | 50 | – | – | – | – |
| COc1ccc(-c2nnc(C(=O)N3CCC(Oc4ccc(CN5CCC(O)C5)cc4)CC3)o2)cc1 (stereo not given) | 2 | – | 8.9 | – | 36 | – | – | – | 0.293 |
